The values that follow come from US7642354B2, “Polycyclic pyrazines as potassium ion channel modulators” (Icagen, Inc., priority 2004, dated 2010).

“And” between values parts separate entries of the source, which are not always exact repeats. Equal values may be shown once.

In the test the target is hSK2 (Homo sapiens, UniProt Q9H2S1). The test can be described thus: Assay for compound activity towards hSK channels (86Rb+ efflux). Type of test: cell-based. The conditions noted are these: 86Rb+ efflux stimulated with calcium ionophore; drug 0.01 to 30 μM in EBSS; read-out: hSK2 Inhibitory Activity. The method, then: 18.1 Assay for Compound Activity Towards hSK Channels Cells expressing small conductance, calcium activated potassium channels, such as SK-like channels were loaded with ^86Rb^+ by culture in media containing ^86RbCl. Following loading, the culture media was removed and the cells were washed in EBSS to remove residual traces of ^86Rb^+. Cells were preincubated with the drug (0.01 to 30 μM in EBSS) and then ^86Rb^+ efflux was stimulated by exposing cells to EBSS solution supplemented with a calcium ionophore, such as ionomycin, in the continued presence of the drug. After a suitable efflux period, the EBSS/ionophore solution was removed from the cells and the ^86Rb^+ content was determined by Cherenkov counting (Wallac Trilux). Cells were then lysed with a SDS solution and the ^86Rb^+ content of the lysate was determined. Percent ^86Rb^+ efflux was calculated according to the following equation: (^86Rb^+ content in EBSS/(^86Rb^+ content in EBSS+^86Rb^+ content of the lysate))×100
`Cc1ccc(-c2cncc(Nc3ccccn3)n2)nc1` [[6-(5-Methyl-pyridin-2-yl)-pyrazin-2-yl]-pyridin-2-yl-amine]: the IC50 fell in the range of 0.05 to 1 µM.

Turning to `O=C(c1nccnc1Nc1cncc(-c2ccccn2)n1)N1CCCC1` [[3-(6-Pyridin-2-yl-pyrazin-2-ylamino)-pyrazin-2-yl]-pyrrolidin-1-yl-methanone], the IC50 is 3 to 30 µM.

As to `Brc1ncc(-c2ccccn2)nc1Nc1ccccn1` [(3-Bromo-6-pyridin-2-yl-pyrazin-2-yl)-pyridin-2-yl-amine], the IC50 was in the range of 1 to 3 µM.

With `c1ccc(-c2cncc(Nc3ccc4ccccc4n3)n2)nc1` [(6-Pyridin-2-yl-pyrazin-2-yl)-quinolin-2-yl-amine], the IC50 was in the range of 3 to 30 µM.

Take `Oc1cccnc1Nc1cncc(-c2ccccn2)n1` [2-(6-Pyridin-2-yl-pyrazin-2-ylamino)-pyridin-3-ol]: the IC50 was 3 to 30 µM.

Regarding `c1ccc(-c2cncc(Nc3nccs3)n2)nc1` [(6-Pyridin-2-yl-pyrazin-2-yl)-thiazol-2-yl-amine], the IC50 was in the range of 3 to 30 µM.

`c1ccc(Nc2cncc(-c3cc(N4CCCC4)ccn3)n2)nc1` [Pyridin-2-yl-[6-(4-pyrrolidin-1-yl-pyridin-2-yl)-pyrazin-2-yl]-amine]: the IC50 fell in the range of 0.05 to 1 µM.

On to `c1ccc(-c2cncc(Nc3nc[nH]n3)n2)nc1` [(6-Pyridin-2-yl-pyrazin-2-yl)-(1H-[1,2,4]triazol-3-yl)-amine], for which the IC50 was in the range of 3 to 30 µM.

In the case of `Clc1ccc(-c2ccc(Nc3cncc(-c4ccccn4)n3)nc2)s1` [[5-(5-Chloro-thiophen-2-yl)-pyridin-2-yl]-(6-pyridin-2-yl-pyrazin-2-yl)-amine], the IC50 is 0.05 to 1 µM.

Turning to `c1ccc(Nc2cncc(-c3ccccn3)n2)nc1` [Pyridin-2-yl-(6-pyridin-2-yl-pyrazin-2-yl)-amine], the IC50 is less than 0.05 µM.

For `c1ccc(-c2cncc(Nc3ccc(-c4ccco4)cn3)n2)nc1` [(5-Furan-2-yl-pyridin-2-yl)-(6-pyridin-2-yl-pyrazin-2-yl)-amine], the IC50 lay within 0.05 to 1 µM.

On to `c1ccc(Nc2cncc(-c3cc4ccccc4o3)n2)nc1` [(6-Benzofuran-2-yl-pyrazin-2-yl)-pyridin-2-yl-amine], for which the IC50 lay in the range of 3 to 30 µM.

`c1ccc(-c2cncc(Nc3nncs3)n2)nc1` [(6-Pyridin-2-yl-pyrazin-2-yl)-[1,3,4]thiadiazol-2-yl-amine]: the IC50 lay within 3 to 30 µM.

For `CC(C)(C)c1nnc(Nc2cncc(-c3ccccn3)n2)s1` [(5-tert-Butyl-[1,3,4]thiadiazol-2-yl)-(6-pyridin-2-yl-pyrazin-2-yl)-amine], the IC50 lay within 3 to 30 µM.

Take `Cc1ccnc(-c2cncc(Nc3ccc(F)cn3)n2)c1` [(5-Fluoro-pyridin-2-yl)-[6-(4-methyl-pyridin-2-yl)-pyrazin-2-yl]-amine]: the IC50 lay in the range of 0.05 to 1 µM.

For `CCOC(=O)c1cnn(-c2ccccc2)c1Nc1cncc(-c2ccccn2)n1` [1-Phenyl-5-(6-pyridin-2-yl-pyrazin-2-ylamino)-1H-pyrazole-4-carboxylic acid ethyl ester], the IC50 was in the range of 3 to 30 µM.

Take `Cc1cnn(-c2cncc(Nc3ccc(N4CCCC4)cn3)n2)c1` [[6-(4-Methyl-pyrazol-1-yl)-pyrazin-2-yl]-(5-pyrrolidin-1-yl-pyridin-2-yl)-amine]: the IC50 lay within 0.05 to 1 µM.

Regarding `O=[N+]([O-])c1ccc(Nc2cncc(-c3ccccn3)n2)nc1` [(5-Nitro-pyridin-2-yl)-(6-pyridin-2-yl-pyrazin-2-yl)-amine], the IC50 was 3 to 30 µM.

With `Clc1ccc(Nc2cncc(-c3ccccn3)n2)nc1` [(5-Chloro-pyridin-2-yl)-(6-pyridin-2-yl-pyrazin-2-yl)-amine], the IC50 lay in the range of 0.05 to 1 µM.

With `[O-][n+]1ccccc1Nc1cncc(-c2ccccn2)n1` [(1-Oxy-pyridin-2-yl)-(6-pyridin-2-yl-pyrazin-2-yl)-amine], the IC50 was in the range of 3 to 30 µM.

On to `c1ccc(-c2ccc(Nc3cncc(-c4cc(N5CCCC5)ccn4)n3)nc2)cc1` [(5-Phenyl-pyridin-2-yl)-[6-(4-pyrrolidin-1-yl-pyridin-2-yl)-pyrazin-2-yl]-amine], for which the IC50 is 3 to 30 µM.

For the compound `Fc1cccc(Nc2cncc(-c3ccccn3)n2)n1` [(6-Fluoro-pyridin-2-yl)-(6-pyridin-2-yl-pyrazin-2-yl)-amine], the IC50 was 1 to 3 µM.

For `c1ccc(-c2ccc(Nc3cncc(-c4nccs4)n3)nc2)cc1` [(5-Phenyl-pyridin-2-yl)-(6-thiazol-2-yl-pyrazin-2-yl)-amine], the IC50 is 3 to 30 µM.

On to `Fc1ccc(Nc2cncc(-c3cc(N4CCCC4)ccn3)n2)nc1` [(5-Fluoro-pyridin-2-yl)-[6-(4-pyrrolidin-1-yl-pyridin-2-yl)-pyrazin-2-yl]-amine], for which the IC50 was in the range of 3 to 30 µM.

For `CN(C)c1ccc(-c2ccc(Nc3cncc(-c4ccccn4)n3)nc2)cc1` [[5-(4-Dimethylamino-phenyl)-pyridin-2-yl]-(6-pyridin-2-yl-pyrazin-2-yl)-amine], the IC50 was 0.05 to 1 µM.

Take `c1ccc(-c2cncc(Nc3ccc(-c4cccnc4)cn3)n2)nc1` [[3,3′]Bipyridinyl-6-yl-(6-pyridin-2-yl-pyrazin-2-yl)-amine]: the IC50 fell in the range of 0.05 to 1 µM.

For the compound `CN1CCN(c2ccc(Nc3cncc(-c4ccccn4)n3)nc2)CC1` [[5-(4-Methyl-piperazin-1-yl)-pyridin-2-yl]-(6-pyridin-2-yl-pyrazin-2-yl)-amine], the IC50 was in the range of 1 to 3 µM.

For `Cc1ccnc(-c2cncc(Nc3ccccn3)n2)c1` [[6-(4-Methyl-pyridin-2-yl)-pyrazin-2-yl]-pyridin-2-yl-amine], the IC50 lay in the range of 0.05 to 1 µM.

With `FC(F)(F)c1cnc(Nc2cncc(-c3ccccn3)n2)c(Cl)c1` [(3-Chloro-5-trifluoromethyl-pyridin-2-yl)-(6-pyridin-2-yl-pyrazin-2-yl)-amine], the IC50 was 3 to 30 µM.

Take `Cc1cnn(-c2cncc(Nc3ccc(N4CCCC4=O)cn3)n2)c1` [1-{6-[6-(4-Methyl-pyrazol-1-yl)-pyrazin-2-ylamino]-pyridin-3-yl}-pyrrolidin-2-one]: the IC50 was 0.05 to 1 µM.

As for `Brc1ccc(Nc2cnc(Br)c(-c3ccccn3)n2)nc1` [(5-Bromo-pyridin-2-yl)-(5-bromo-6-pyridin-2-yl-pyrazin-2-yl)-amine], the IC50 was in the range of 3 to 30 µM.

As to `c1ccc(-c2cncc(Nc3ccc(N4CCOCC4)cn3)n2)nc1` [(5-Morpholin-4-yl-pyridin-2-yl)-(6-pyridin-2-yl-pyrazin-2-yl)-amine], the IC50 is less than 0.05 µM.

As for `c1ccc(-c2cncc(Nc3ncncn3)n2)nc1` [(6-Pyridin-2-yl-pyrazin-2-yl)-[1,3,5]triazin-2-yl-amine], the IC50 was in the range of 3 to 30 µM.

With `O=C1CCCN1c1ccc(Nc2cncc(-c3nccs3)n2)nc1` [1-[6-(6-Thiazol-2-yl-pyrazin-2-ylamino)-pyridin-3-yl]-pyrrolidin-2-one], the IC50 is 0.05 to 1 µM.

In the case of `COc1cccc(-c2cncc(Nc3ccccn3)n2)n1` [[6-(6-Methoxy-pyridin-2-yl)-pyrazin-2-yl]-pyradin-2-yl-amine], the IC50 was in the range of 0.05 to 1 µM.

As for `Fc1ccc(Nc2cncc(-c3ccccn3)n2)nc1` [(5-Fluoro-pyridin-2-yl)-(6-pyridin-2-yl-pyrazin-2-yl)-amine], the IC50 was 0.05 to 1 µM and 1 to 3 µM.

Regarding `Cc1ccnc(Nc2cncc(-c3cc(N4CCCC4)ccn3)n2)c1` [(4-Methyl-pyridin-2-yl)-[6-(4-pyrrolidin-1-yl-pyridin-2-yl)-pyrazin-2-yl]-amine], the IC50 was in the range of 0.05 to 1 µM.
